Source: ChEMBL document CHEMBL1201862, “PubChem BioAssay data set” (2004)
Activity calls are given as the source filed them.

Legend:
[1] = biological target: Adenosylmethionine-8-amino-7-oxononanoate aminotransferase (Mycobacterium tuberculosis, UniProt P9WQ81); test: Mycobacterium tuberculosis BioA enzyme inhibitor Measured in Biochemical System Using Plate Reader - 2163-02_Inhibitor_Dose_CherryPick_Activity.; type: functional, Mycobacterium tuberculosis UT205
[2] = biological target: Nuclear receptor subfamily 5 group A member 2 (Homo sapiens, UniProt O00482); type: functional, cell-based;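 note: HEK293T cells transfected with LRH-1 and a StAR promoter luciferase reporter; potency for inhibitors that lower LRH-1 driven reporter light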
Steroidogenic factor 1 = Steroidogenic factor 1 (Homo sapiens, UniProt Q13285); test: Counterscreen for inverse agonists of the liver receptor homolog-1 (LRH-1; NR5A2): Luminescence-based cell-based high throughput dose response assay to identify inverse agonists of the Steroidogenic Factor 1 Nuclear Receptor (SF1; NR5A1).; type: functional
[3] = StAR promoter reporter inhibition counter-screen, dose response, counter-screen for LRH-1 inverse agonist project, cell-based, luminescence, luciferase reporter (AID 651969); type: functional
[4] = biological target: T1, Apoptotic protease-activating factor 1 (Homo sapiens, UniProt O14727); test: SAR analysis of small molecule Activators of Apaf-1 in a Fluorescent assay.; type: functional; conditions: read-out: EC50_Mean;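 note: caspase-3 cleavage of fluorogenic Rh110 DEVD substrate downstream of apoptosome activation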
T1 sequence (O14727 whole entry): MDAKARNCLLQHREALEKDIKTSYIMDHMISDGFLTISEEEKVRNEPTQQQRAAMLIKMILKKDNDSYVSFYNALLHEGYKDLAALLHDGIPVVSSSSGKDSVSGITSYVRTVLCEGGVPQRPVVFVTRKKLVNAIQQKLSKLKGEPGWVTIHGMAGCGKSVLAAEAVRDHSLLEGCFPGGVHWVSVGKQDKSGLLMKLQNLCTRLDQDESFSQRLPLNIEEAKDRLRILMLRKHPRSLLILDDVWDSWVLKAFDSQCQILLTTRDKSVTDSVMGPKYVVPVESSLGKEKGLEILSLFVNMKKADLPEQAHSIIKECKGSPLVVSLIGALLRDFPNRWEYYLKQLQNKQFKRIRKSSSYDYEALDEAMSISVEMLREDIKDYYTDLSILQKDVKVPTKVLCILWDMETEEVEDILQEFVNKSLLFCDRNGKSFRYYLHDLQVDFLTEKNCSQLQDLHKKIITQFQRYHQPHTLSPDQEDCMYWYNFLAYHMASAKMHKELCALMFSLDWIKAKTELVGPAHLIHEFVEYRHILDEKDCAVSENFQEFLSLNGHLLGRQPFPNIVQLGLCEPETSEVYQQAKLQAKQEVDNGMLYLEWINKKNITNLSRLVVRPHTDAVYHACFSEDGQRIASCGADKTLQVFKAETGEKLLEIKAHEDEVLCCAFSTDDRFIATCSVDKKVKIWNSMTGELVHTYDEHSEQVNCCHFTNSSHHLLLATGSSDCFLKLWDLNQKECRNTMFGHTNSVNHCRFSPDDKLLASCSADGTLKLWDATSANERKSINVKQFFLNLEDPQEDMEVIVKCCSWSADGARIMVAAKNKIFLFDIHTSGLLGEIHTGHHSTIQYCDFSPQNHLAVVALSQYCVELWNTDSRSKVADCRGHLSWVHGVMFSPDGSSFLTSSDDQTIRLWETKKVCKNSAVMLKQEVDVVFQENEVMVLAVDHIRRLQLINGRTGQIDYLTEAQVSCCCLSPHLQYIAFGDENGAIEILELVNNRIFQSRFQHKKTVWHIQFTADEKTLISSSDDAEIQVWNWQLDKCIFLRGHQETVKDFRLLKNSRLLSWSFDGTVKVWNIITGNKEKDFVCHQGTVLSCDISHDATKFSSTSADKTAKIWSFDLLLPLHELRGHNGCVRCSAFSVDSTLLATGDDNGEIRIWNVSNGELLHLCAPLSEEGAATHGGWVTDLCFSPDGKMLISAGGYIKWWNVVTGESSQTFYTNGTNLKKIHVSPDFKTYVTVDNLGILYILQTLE

Nuclear receptor subfamily 5 group A member 2, sequence (O00482 whole entry): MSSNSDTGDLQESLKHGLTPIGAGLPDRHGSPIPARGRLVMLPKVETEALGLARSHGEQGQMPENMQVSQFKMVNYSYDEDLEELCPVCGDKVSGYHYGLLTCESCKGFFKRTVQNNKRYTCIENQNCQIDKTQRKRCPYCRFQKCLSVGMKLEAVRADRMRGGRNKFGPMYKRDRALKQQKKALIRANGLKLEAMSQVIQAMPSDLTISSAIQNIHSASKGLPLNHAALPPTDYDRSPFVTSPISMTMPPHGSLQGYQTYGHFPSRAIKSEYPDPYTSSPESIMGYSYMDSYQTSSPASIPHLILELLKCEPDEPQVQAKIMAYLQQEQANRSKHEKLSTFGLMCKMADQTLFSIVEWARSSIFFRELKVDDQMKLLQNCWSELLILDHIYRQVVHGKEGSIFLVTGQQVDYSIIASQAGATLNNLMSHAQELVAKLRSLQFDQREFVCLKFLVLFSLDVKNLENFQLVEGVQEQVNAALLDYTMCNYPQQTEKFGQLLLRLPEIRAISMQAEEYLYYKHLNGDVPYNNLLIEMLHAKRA
Adenosylmethionine-8-amino-7-oxononanoate aminotransferase, sequence (P9WQ81 whole entry): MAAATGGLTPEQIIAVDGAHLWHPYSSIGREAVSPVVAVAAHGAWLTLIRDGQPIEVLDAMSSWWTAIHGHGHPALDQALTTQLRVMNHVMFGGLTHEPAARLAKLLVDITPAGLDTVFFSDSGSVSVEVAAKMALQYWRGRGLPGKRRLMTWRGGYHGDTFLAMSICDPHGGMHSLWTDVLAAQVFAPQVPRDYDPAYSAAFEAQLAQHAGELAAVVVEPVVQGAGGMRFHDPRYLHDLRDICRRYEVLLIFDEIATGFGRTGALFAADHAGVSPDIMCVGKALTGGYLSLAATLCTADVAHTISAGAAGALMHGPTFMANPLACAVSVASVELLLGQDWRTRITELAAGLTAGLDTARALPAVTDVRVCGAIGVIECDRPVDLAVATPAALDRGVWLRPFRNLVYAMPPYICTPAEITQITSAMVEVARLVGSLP
Steroidogenic factor 1, sequence (Q13285 whole entry): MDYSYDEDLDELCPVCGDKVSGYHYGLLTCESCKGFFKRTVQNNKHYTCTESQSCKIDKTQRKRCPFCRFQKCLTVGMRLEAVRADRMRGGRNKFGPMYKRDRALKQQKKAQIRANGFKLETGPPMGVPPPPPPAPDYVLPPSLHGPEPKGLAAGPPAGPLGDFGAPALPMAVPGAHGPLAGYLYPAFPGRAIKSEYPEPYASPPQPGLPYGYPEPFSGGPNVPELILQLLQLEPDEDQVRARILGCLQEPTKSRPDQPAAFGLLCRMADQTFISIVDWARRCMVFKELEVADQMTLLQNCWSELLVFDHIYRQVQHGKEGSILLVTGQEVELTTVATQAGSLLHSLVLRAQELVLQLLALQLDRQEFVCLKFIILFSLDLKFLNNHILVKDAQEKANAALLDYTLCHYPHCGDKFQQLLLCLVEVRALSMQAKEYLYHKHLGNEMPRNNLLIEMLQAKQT

CCc1nn(CC(=O)N2CCN(Cc3ccc4c(c3)OCO4)CC2)c(=O)c2cc3occc3n12
AC50 [1]: 1.01 µM (active)

Cc1cc(=O)oc2c(C)c(OCC(=O)NC3CC(C)(C)NC(C)(C)C3)ccc12
IC50 [2]: 35.9 µM (inactive) | IC50 (Steroidogenic factor 1): 35.9 µM (inactive) | IC50 [3]: 35.9 µM (inactive)

CN1c2ccccc2C(C)(C)C12CC(c1ccc(F)cc1)=NO2 (stereo not given)
EC50 [4]: > 100 µM (inactive)

C/C(=N\Nc1cc(C(F)(F)F)ccc1Cl)c1ccncc1
IC50 [2]: 26.2 µM (inactive) | IC50 (Steroidogenic factor 1): 12 µM (inactive) | IC50 [3]: 35.9 µM (inactive)

Cc1c(OC(C)C(=O)NCc2ccccn2)ccc2c3c(c(=O)oc12)CCC3 (stereo not given)
AC50 [1]: 6.05 µM (active)

N[C@@H](CCc1ccccc1)C(=O)O [HOMOPHENYLALANINE]
EC50 [4]: > 100 µM (inactive)
